Experimental data published in patent publication US20140294854A1, “TARGET DIRECTED TO ADIPOCYTES, METHODS AND ASSAYS FOR TREATMENT OF OBESITY” (priority 2011, published 2014).
Residues, ends and D or L forms follow the SMILES beside them. *: point of attachment. Cbz = O=C(OCc1ccccc1)*

Assays:
HSL = target: T1, HSL (Mus musculus, UniProt P54310); experiment: Free fatty acid release (lipolysis) from adipose tissue explants with the HSL inhibitor; type: cell-based
T1 construct: freshly dissected adipose tissue explants from BALB/c or B6 ob/ob inguinal fat pad; from tissue; host or cells: inguinal fat pad (white adipose tissue) explants of BALB/c and C57BL/6J ob/ob (Agrp-/-) mice
T1 sequence (P54310 1-759): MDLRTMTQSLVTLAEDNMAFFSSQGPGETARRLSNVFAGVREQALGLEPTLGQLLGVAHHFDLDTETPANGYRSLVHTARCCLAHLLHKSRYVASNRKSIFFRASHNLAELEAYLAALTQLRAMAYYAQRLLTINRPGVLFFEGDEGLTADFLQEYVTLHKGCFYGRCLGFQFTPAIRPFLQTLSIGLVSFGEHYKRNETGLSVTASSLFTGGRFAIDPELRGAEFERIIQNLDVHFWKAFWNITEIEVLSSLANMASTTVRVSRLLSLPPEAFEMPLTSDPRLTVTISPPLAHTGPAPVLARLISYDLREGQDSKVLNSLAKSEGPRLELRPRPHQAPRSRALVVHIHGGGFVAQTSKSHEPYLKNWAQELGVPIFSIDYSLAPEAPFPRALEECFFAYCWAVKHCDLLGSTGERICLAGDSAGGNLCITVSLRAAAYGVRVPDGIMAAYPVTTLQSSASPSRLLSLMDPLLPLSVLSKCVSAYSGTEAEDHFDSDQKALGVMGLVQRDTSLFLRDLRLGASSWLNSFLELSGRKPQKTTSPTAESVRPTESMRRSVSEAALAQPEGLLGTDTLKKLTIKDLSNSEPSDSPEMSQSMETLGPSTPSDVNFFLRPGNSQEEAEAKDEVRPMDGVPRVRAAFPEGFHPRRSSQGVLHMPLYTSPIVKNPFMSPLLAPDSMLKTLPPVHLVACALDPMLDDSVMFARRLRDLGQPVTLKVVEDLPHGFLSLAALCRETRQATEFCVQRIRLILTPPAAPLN
Excerpt: Free fatty acids (FFA) release from adipose tissue explants was further measured in presence or not of the HSL inhibitor CAY 10499. […] FFA release was compared from freshly dissected adipose tissue explants from BALB/c or B6 ob/ob inguinal fat pad. It was observed that FFA production was increased in explants from BALB/c relative to B6 ob/ob mice when HSL activity is inhibited by CAY10499. The same difference between BALB and B6 lipolysis (Δ^−CAY=[…] versus Δ^+CAY=397.1±8.1, P=0.31) without the HSL inhibitor (i.e. HSL+ATGL activity) or with CAY10499 (i.e. ATGL activity), respectively. […] Of note, the increased ATGL activity is greater than the increase in ATGL protein content in adipose tissue. This may be due to the concomitant increase of CGI-58 expression that is known to enhance ATGL lipolytic activity.

ATGL = ATGL degradation in WAT fat fragments, anti-ATGL immunoblot; type: cell-based, mouse; settings: for ATGL concentrations on co-treatment with cycloheximide: B6 ob/ob fat co-treated with cycloheximide and the inhibitor
Description: FIGS. 5A-5C. Regulation of ATGL expression through degradation pathways. (5A) ATGL mRNA level in WAT was determined by RT-qPCR (n=6). (5B) WAT fragments of BALB/c and B6 ob/ob mice were incubated for 5 hours with cycloheximide (CHX) and WAT protein lysates were immunoblotted using anti-ATGL to follow degradation rates of ATGL. (5C) B6 ob/ob WAT fragments were treated with MG132 (MG, proteasome inhibitor) and chloroquine (CQ, lysosome inhibitor). Protein extracts were analyzed by Western blot. Densitometry analysis was performed (5B,5C) and data are expressed as average ±SEM (n=6). Unpaired t-tests were performed, *P<0.05.
Thus, BALB/c ob/ob fat has long lived ATGL whereas C57BL/6 ob/ob fat has ATGL that is degraded within several hours. […] Thus, ATGL appears to be degraded by both the lysosomal and proteasomal pathways.

## COc1nn(-c2ccc(NC(=O)OCc3ccccc3)c(C)c2)c(=O)o1 [CAY10499]
HSL; in presence of 100 μM CAY10499
  Lipolysis induced with selective β3AR agonist CL316,243: blunted
HSL; inguinal fat pad explants of BALB/c vs B6 ob/ob with CAY10499 (i.e. ATGL activity), P=0.31 versus without inhibitor
  Difference between BALB and B6 lipolysis (Δ+CAY), FFA release: 397.1±8.1

## CCN(CC)CCCC(C)Nc1ccnc2cc(Cl)ccc12 (stereo not drawn) [chloroquine]
ATGL
  ATGL concentrations on co-treatment with cycloheximide: ATGL concentrations persisted

## C[C@@H]1C[C@@H]([C@H](O)CC2CC(=O)NC(=O)C2)C(=O)[C@@H](C)C1 [cycloheximide]
ATGL; fat fragments from B6 ob/ob mice, incubated 5 hours
  ATGL concentrations after cycloheximide treatment: dramatic reduction in ATGL concentrations
ATGL; fat fragments from BALB/c ob/ob mice, incubated 5 hours
  ATGL amounts after cycloheximide treatment: no alteration in ATGL amounts

## CC(C)C[C@@H](C=O)NC(=O)[C@H](CC(C)C)NC(=O)[C@H](CC(C)C)NC(=O)OCc1ccccc1 [MG-132] (Cbz-Leu-Leu-Leu-aldehyde)
ATGL
  ATGL concentrations on co-treatment with cycloheximide: ATGL concentrations persisted
